Paper PMC3602595, “The Structure of HasB Reveals a New Class of TonB Protein Fold” (PLoS ONE, 2013)
Ends that are not written are not given here.

Columns and labels:
HasBCTD [1] = test: ITC interaction of HasBCTD with HasR TonB box peptides; type: binding, Serratia marcescens
Procedure: (§1) The TonB box peptides were synthesized with free acid C- and amine N-termini by Proteogenix (Strasbourg, France).
(§2) ITC was performed at 25°C using a MicroCal VP titration calorimeter (MicroCal-GE Healthcare) under the same conditions as described previously. The buffer was 20 mM sodium phosphate, pH 7, 50 mM NaCl for all the titrations, except for experiments carried out in the presence of HasR where 20 mM sodium phosphate, pH 7, 0.08% ZW 3–14 was used.
The heat of dilution of peptide/protein injections was determined either by injecting the ligand into the buffer alone or by injecting the ligand into the cell after the saturation of the protein binding site. The value obtained was subtracted from the heat of reaction to give the effective heat of binding. The resulting titration data were analyzed using Microcal-ORIGIN software package. The molar binding stoichiometry (N), association constant (Ka; Kd = 1/Ka) and enthalpy changes (ΔH) of binding were determined by fitting the binding isotherm to a model with one set of sites. Their values are the average of three experiments. […] For HasR titration experiments with HasB, 5–8×10^−5 M of HasBCTD wild type or mutants and 3–5 µM of HasR were used.

TonBCTD = biological target: T1, TonBCTD (Escherichia coli, UniProt P02929); test: ITC interaction of TonBCTD with TonB box peptide; type: binding, E. coli
T1 construct: TonBCTD (TonB C-terminal domain); made in house
T1 sequence (P02929 148-239): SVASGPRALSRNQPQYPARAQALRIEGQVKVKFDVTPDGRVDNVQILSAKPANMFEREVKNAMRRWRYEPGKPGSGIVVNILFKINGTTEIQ
Procedure: Labeled and unlabeled HasBCTD (named HasB133 in our earlier publication) were prepared as described. TonBCTD of E. coli , previously named TonB116, was prepared as already reported. HasB mutations were introduced by PCR into the plasmid encoding HasBCTD wild type with the following pairs of oligonucleotides:
as §1, §2
The heat of dilution of peptide/protein injections was determined either by injecting the ligand into the buffer alone or by injecting the ligand into the cell after the saturation of the protein binding site. The value obtained was subtracted from the heat of reaction to give the effective heat of binding. The resulting titration data were analyzed using Microcal-ORIGIN software package. The molar binding stoichiometry (N), association constant (Ka; Kd = 1/Ka) and enthalpy changes (ΔH) of binding were determined by fitting the binding isotherm to a model with one set of sites. Their values are the average of three experiments. HasBCTD/TonBCTD titrations with peptides were carried out by injecting 20–35 consecutive aliquots of 5–10 µL of a 1–1.5 mM peptide solution into the ITC cell containing 4 to 9×10^−5 M of protein solution of either HasBCTD or TonBCTD. For HasR titration experiments with HasB, 5–8×10^−5 M of HasBCTD wild type or mutants and 3–5 µM of HasR were used.

HasBCTD [2] = test: NMR chemical shift perturbation of HasBCTD by HasR TonB box peptides; type: binding, Serratia marcescens; settings: for chemical shift perturbation in 15N-1H HSQC spectra of HasBCTD: NMR HSQC, 293K, 50 mM sodium phosphate buffer, pH 7, 50 mM NaCl, 15% D2O/H2O, peptide:HasBCTD ratios 1∶2 to 4∶1, CSP >0.2 ppm considered large
Procedure: All NMR experiments were recorded at 293K on a Varian 600 MHz spectrometer with a cryogenically cooled triple resonance ^1H/(^15N/^13C) PFG probe. Proton chemical shifts were referenced to 2,2-dimethyl-2-silapentane-5-sulfonate (DSS) as 0 ppm. ^15N and ^13C chemical shifts were referenced indirectly to DSS. The pulse sequences were taken as implemented in the Varian BioPack. NMR data were processed using NMRPipe/NMRDraw and spectra were analyzed using NMRViewJ and CCPNMR Analysis, [24]. The HasB samples used for NMR experiments were from 0.35 to 0.7 mM in 50 mM sodium phosphate buffer, pH 7, 50 mM NaCl and 15% D2O/H2O (v/v).
CSP values of ^1H and ^15N amide of HasBCTD were obtained after interaction with the TonB box peptide by comparing the ^1H-^15N HSQC spectra of free and bound HasBCTD as previously explained. The samples were prepared in 50 mM sodium phosphate buffer, pH 7, 50 mM NaCl and 15% D2O/H20 (v/v). Lyophilized peptides were added to the HasBCTD solution at 1∶2, 1∶1, 2∶1 and 4∶1 ratios. CSP values greater than 0.2 ppm were considered as large. For proline residues no chemical shift change can be observed because of the lack of backbone amide proton.

[3] = Conformation of 21-mer peptide in solution by 2D TOCSY, NOESY and ROESY; type: physicochemical; settings: free peptide, data not shown

## ALDSLTVLGAGG [dodecamer peptide]
HasBCTD [1]; ITC and NMR CSP
  interaction with HasBCTD (in words): did not reveal any interaction with HasBCTD
TonBCTD; ITC, TonBCTD, 25°C, 20 mM sodium phosphate, pH 7, 50 mM NaCl, one set of sites, average of three experiments
  affinity (association constant Ka): about 2×10^4 M^−1
TonBCTD; ITC, TonBCTD, 25°C, 20 mM sodium phosphate, pH 7, 50 mM NaCl, Kd = 1/Ka
  Kd: 50 µM
TonBCTD; same range of concentration as that used with HasBCTD
  interaction with TonBCTD (in words): able to bind to TonBCTD
HasBCTD [2]
  chemical shift perturbation in 15N-1H HSQC spectra of HasBCTD: no chemical shift perturbation could be observed

## GDGGALALDSLTVLGAGGNNA [21-mer peptide]
HasBCTD [1]; ITC, HasBCTD, 25°C, 20 mM sodium phosphate, pH 7, 50 mM NaCl, one set of sites, average of three experiments, HasBCTD 9×10^−5 M, peptide 1.5 mM
  affinity constant (Ka): 40000 M⁻¹
HasBCTD [1]; ITC, HasBCTD, 25°C, 20 mM sodium phosphate, pH 7, 50 mM NaCl, Kd = 1/Ka
  Kd: 25 µM
HasBCTD [2]; 15N HSQC, 21-mer peptide
  location of the most substantial CSP on HasBCTD: especially along the strand β3 and on the helix H1
HasBCTD [2]
  chemical shift perturbation in 15N-1H HSQC spectra of HasBCTD: several CSP were observed
[3]
  conformation in solution: unstructured in solution
